Assay [1] concerns the target T1, MpaCA (Malassezia pachydermatis, UniProt A0A0M8MPA4).
T1 construct: gene Malapachy_3798
T1 sequence (A0A0M8MPA4 1-242): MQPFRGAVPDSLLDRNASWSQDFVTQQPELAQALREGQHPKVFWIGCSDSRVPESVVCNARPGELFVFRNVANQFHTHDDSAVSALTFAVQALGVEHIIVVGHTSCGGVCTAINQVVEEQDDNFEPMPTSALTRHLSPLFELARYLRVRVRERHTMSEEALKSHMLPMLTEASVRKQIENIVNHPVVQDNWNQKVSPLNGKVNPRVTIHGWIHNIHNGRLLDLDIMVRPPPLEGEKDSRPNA
Briefly: stopped-flow CO2 hydrase assay. The assay is classed as biochemical.

Assay [2] concerns T2, ATCC M. furfur 14521.
T2 construct: ATCC 14521
Briefly: microbe, parasite or virus in culture. Conditions: Malassezia furfur. In short, it runs like this: (§1)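 Yeast inocula in 10 mM phosphate buffer pH 7, adjusted to 0.5 McFarland (1–5 × 10^6 cells/mL), mixed with compound at 0.01–256 μg/mL. Incubation 24–48 h at 35 °C. Malassezia precultured in modified RPMI and Leeming–Notman agar (M. globosa at 33 °C).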

The test system of assay [3] is T3, M. globosa ATCC MYA 4612.
T3 construct: ATCC MYA 4612
The assay is described as follows: microbe, parasite or virus in culture. As to conditions: Malassezia globosa. In short, it runs like this: as §1

Assay [4] has as its target T4, MgCA (Malassezia globosa, UniProt A8Q1N3).
T4 construct: gene MGL_1814
T4 sequence (A8Q1N3 1-241): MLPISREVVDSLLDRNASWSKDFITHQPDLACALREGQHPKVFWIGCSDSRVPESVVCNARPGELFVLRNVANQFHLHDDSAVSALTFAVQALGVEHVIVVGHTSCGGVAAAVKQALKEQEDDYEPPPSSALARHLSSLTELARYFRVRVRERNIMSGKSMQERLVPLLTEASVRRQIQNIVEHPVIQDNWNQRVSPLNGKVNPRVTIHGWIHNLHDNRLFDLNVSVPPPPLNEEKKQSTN
Briefly: biochemical. Also noted: stopped-flow CO2 hydration assay, phenol red absorbance at 557 nm, 15 min preincubation, Cheng-Prusoff KI. How it is done:
Enzyme concentrations ranged between 5 and 12 nM. […] The presence of the sulfonamide moiety (i.e., either primary/secondary) within our scaffolds prompted us to investigate whether the compounds listed in this study were endowed with modulation features against the enzymatic metalloenzyme carbonic anhydrases (CAs, EC 4.2.1.1) expressed in Malassezia spp. of interest such as M. pachydermatis (MpaCA), M. globosa (MgCA), and M. restricta (MreCA). […] The obtained activities in Table 3 were all reported as KI values.

Assay [5] has as its system T5, M. pachydermatis DSMZ 6172.
T5 construct: DSMZ 6172 (CDC 16334)
The assay is described as follows: microbe, parasite or virus in culture. The arrangement: broth microdilution MIC, M. pachydermatis and Candida, 35 °C. As to conditions: Malassezia pachydermatis, DSMZ6172.

The test system of assay [6] is C. albicans. The assay is described as follows: microbe, parasite or virus in culture. As to conditions: Candida albicans. Also noted: broth microdilution MIC, M. pachydermatis and Candida, 35 °C. In short, it runs like this:
as §1

Assay [7] concerns T6, C. glabrata DSMZ 11226.
T6 construct: DSMZ 11226 (ATCC 90030)
Briefly: microbe, parasite or virus in culture. Also noted: broth microdilution MIC, M. pachydermatis and Candida, 35 °C. Conditions: Nakaseomyces glabratus, DSMZ11226. In short, it runs like this: as §1

Values after ≈ are worked out from the molar mass of the structure shown. Where only a bound is given, the exact number is not on record here.

Turning to `NS(=O)(=O)c1ccc(NC(=O)Nc2ccccc2F)cc1` [14a], the Ki (as a rule, a measure of affinity in units of concentration, obtained from inhibition or displacement) stood at 0.845 µM in assay [1] and 6.74 µM in assay [4]. Further, the MIC in assay [2], in assay [3], in assay [5], in assay [6] and in assay [7] was greater than 256 µg/mL each time.

`NS(=O)(=O)c1ccc(O)c(NC(=[Se])NC(=O)c2cc(Br)cc(OC(F)(F)F)c2)c1` [11i]: the inhibition constant Ki is 12.7 µM in assay [1] and 6.25 µM in assay [4]. For the same molecule, the MIC in assay [2] worked out at 5 ± 2.45 µg/mL (≈ 8.91 µM); in assay [3], 64 µg/mL (≈ 114 µM); in assay [5], 0.5 µg/mL (≈ 0.891 µM); in assay [6], 64 µg/mL (≈ 114 µM); in assay [7] it was 32 µg/mL (≈ 57 µM).

Source of the values: PMC9940851, “Seleno Containing Compounds as Potent and Selective Antifungal Agents” (ACS Infectious Diseases, 2022).
